According to EPA's ToxValDB 9.5 (doi:10.2903/j.efsa.2013.3352):

What was measured:
[1] = system: Apis mellifera; conditions: acute, duration: 48 hours, mortality
[2] = system: Bibionidae; conditions: chronic/long-term; duration: 28 days; other
[3] = system: Colinus virginianus; conditions: for LD50: acute, oral, mortality
[4] = system: Cyprinodon variegatus; conditions: chronic/long-term; duration: 28 days; time to hatch
[5] = system: Daphnia magna; conditions: chronic/long-term; duration: 21 days; reproduction
[6] = system: Oncorhynchus mykiss; conditions: acute; duration: 96 hours; mortality
[7] = system: Oryctolagus sp.; conditions: reproduction developmental
[8] = system: Rattus norvegicus; conditions: acute; oral; mortality
[9] = system: Tagia sp.
[10] = system: Aphidius rhopalosiphi; test: LR50; higher = less toxic; conditions: acute; duration: 48 hours; mortality
[11] = system: Typhlodromus pyri; test: LR50; higher = less toxic; conditions: chronic/long-term; duration: 14 days; mortality

Work on `Nc1cc(Cl)nc(C(=O)O)c1Cl` [4-Amino-3,6-dichloro-2-pyridinecarboxylic acid] yielded an LD50 ([1]; dermal) greater than 100 µg/piece, an LD50 ([1]; oral, unspecified) greater than 120 µg/piece and an NOEC [2] of 130 mg/L. The LD50 ([3]; diet) was greater than 1460 mg/kg-day, the LD50 [3] was greater than 2250 mg/kg-day and the NOEL ([3]; reproduction developmental, reproduction) was 190 mg/kg-day. It also gave an NOEC [4] of 0.1 mg/L, an NOEC [5] of 100 mg/L and an LC50 [6] greater than 100 µg/mL. For the same molecule, the NOAEL ([7]; clinical signs) was 26 mg/kg-day, the NOAEL ([7]; no effects) was 256 mg/kg-day and the LD50 [8] was greater than 5000 mg/kg-day. For the same molecule, the LC50 ([9]; acute, duration: 14 days, mortality) was greater than 1000 mg/kg, the NOEC ([9]; chronic/long-term, duration: 8 weeks) was 3.2 mg/kg and the LR50 [10] was greater than 60 g/ha. It also gave an LR50 [11] greater than 60 g/ha.
